Read-outs that look alike come from different tables or passages of the source. Where no end group is shown, it is not given here.
Experiments:
[1] = system: Staphylococcus haemolyticus strains; experiment: Spot-on-lawn inhibition assay; assay type: cell-based; details: six S. haemolyticus strains 4068–4073; 0.04, 0.2 and 1.0 mg/ml, 5 µl spotted
Experimental: (§1) A semi-quantitative spot-on-lawn inhibitory assay was performed on 51 bacterial indicator strains (Table S1) to determine the bacteriocins inhibition spectra. Overnight cultures were diluted 1:100 in BHI soft agar and distributed on BHI agar plates. Once solidified, bacteriocins with various concentrations were applied on designated spots. The plates were incubated at appropriate temperature O/N and inhibition zones were measured the following day. To determine minimal inhibitory concentration (MIC50) of H1 against clinical S. haemolyticus isolates (Table S2), as well as strains heterologously expressing RseP (Table S4), the microtiterplate antimicrobial assay was performed as previously described[41],[79]. MIC50 was defined as the minimal bacteriocin concentration needs to inhibit the growth of a bacterial strain by at least 50%.

[2] = system: planktonic S. haemolyticus; assay type: cell-based, Staphylococcus haemolyticus
Experimental: Synergistic interactions between antimicrobials were determined using the fractional inhibition concentration (FIC) as previously described. The FIC values were determined using a mirotiterplate checkerboard assay. Briefly, antimirobial A was applied in wells A1–H1 then diluted two-fold in wells 2–12. In a second microtiter plate, antimicrobial B was applied in wells A1–A12, then diluted two folds in wells B–H. Fifty μl of the serial diluted antimirobial A was transferred to the wells of a third microtiter plate, except for wells H1–H12. Similarly, 50 μl of the serial diluted antimicrobial B was transferred to the same microtiter plate, except for wells A1–A12. Wells H1-12 and wells A1-12 contained only one of the antimicrobials and was used to estimate the MIC value of the pure substance. After combining the antimicrobials, 100 μl of a 1:25 diluted O/N of S. haemolyticus was transferred to each well of the third microplate, while 50 μl of medium was added to wells H1-12 and A1-12. […] FIC values were calculated as follows: FIC = FICa + FICb + FICc, where the FICa means MIC of A in combination/MIC of A alone, FICb means MIC of B in combination/MIC of B, and FICc means MIC of C in combination/MIC of C alone. Effects were considered as synergistic if FIC was ≤ 0.5 for two components mixture[81] and ≤ 0.75 for three components mixture.

[3] = system: L. plantarum WCFS1 strains (with or without S. haemolyticus RseP); assay type: cell-based, Lactobacillus plantarum
Experimental: as §1
rseP (Uniprot: Q4L5W4) derived from S. haemolyticus 7067_4_21 was heterologously expressed in the naturally H1-resistant L. plantarum WCFS1[36] using the vector pSIP expression system[84],[85]. First, pLp1261_InvS, a pSIP401 derivative[84],[86], was linearized using FastDigest Restrictiction Enzymes NdeI and Acc65I (ThermoFisher Scientific) to isolate the vector part. Second, rseP was amplified by PCR using specially designed In-Fusion Primes (Table S6), giving amplicons with complementary ends to the linearized vector. The In-Fusion HD cloning Kit (Takara Bio) was used to fuse rseP into the linearized vector, yielding pSIP401_SHRseP. The plasmid was subsequently transformed to E.coli TOP10 (ThermoFischer Scientific). Plasmid DNA from E. coli was isolated using NucleoSpin Plasmid Kit (Macherey–Nagel). The DNA sequence of all PCR amplified fragments was verified by sequencing at Eurofins GATC, Germany, and before being electroporated into L. plantarum WCSF1 following the procedure described by Aukrust and Blom[87].

[4] = system: clinical and commensial S. haemolyticus isolates; assay type: cell-based, Staphylococcus haemolyticus; details: 5 h
Experimental: as §1

[5] = S. haemolyticus 4068, planktonic cells, 5 h exposure
[6] = S. haemolyticus 4068, planktonic cells, 24 h exposure
[7] = S. haemolyticus 4068, planktonic cells, 48 h exposure
[8] = S. haemolyticus 4069, planktonic cells, 5 h exposure
[9] = S. haemolyticus 4069, planktonic cells, 24 h exposure
[10] = S. haemolyticus 4069, planktonic cells, 48 h exposure
[11] = S. haemolyticus 4070, planktonic cells, 5 h exposure
[12] = S. haemolyticus 4070, planktonic cells, 24 h exposure
[13] = S. haemolyticus 4070, planktonic cells, 48 h exposure
[14] = S. haemolyticus 4071, planktonic cells, 5 h exposure
[15] = S. haemolyticus 4071, planktonic cells, 24 h exposure
[16] = S. haemolyticus 4071, planktonic cells, 48 h exposure
[17] = S. haemolyticus 4072, planktonic cells, 5 h exposure
[18] = S. haemolyticus 4072, planktonic cells, 24 h exposure
[19] = S. haemolyticus 4072, planktonic cells, 48 h exposure
[20] = S. haemolyticus 4073, planktonic cells, 5 h exposure
[21] = S. haemolyticus 4073, planktonic cells, 24 h exposure
[22] = S. haemolyticus 4073, planktonic cells, 48 h exposure

SCTTCVCTCSCCTT [MP1, micrococcin P1]
Inhibition zones at three concentrations [1]: clear inhibition zones at all three concentrations | MIC, individual component [2, 5]: 0.02 µg/mL | MIC, individual component [2, 6]: 0.023 µg/mL | MIC, individual component [2, 7]: 0.078 µg/mL | MIC, individual component [2, 8]: 0.15 µg/mL | MIC, individual component [2, 9]: > 10 µg/mL | MIC, individual component [2, 10]: > 10 µg/mL | MIC, individual component [2, 11]: 0.02 µg/mL | MIC, individual component [2, 12]: 0.33 µg/mL | MIC, individual component [2, 13]: 0.13 µg/mL | MIC, individual component [2, 14]: 0.043 µg/mL | MIC, individual component [2, 15]: > 10 µg/mL | MIC, individual component [2, 16]: > 10 µg/mL | MIC, individual component [2, 17]: 0.039 µg/mL | MIC, individual component [2, 18]: > 10 µg/mL | MIC, individual component [2, 19]: 0.63 µg/mL | MIC, individual component [2, 20]: 0.022 µg/mL | MIC, individual component [2, 21]: 0.072 µg/mL | MIC, individual component [2, 22]: 0.14 µg/mL

MKFKFNPTGTIVKKLTQYEINWYKQQYGRYPWERPVA [H1]
MIC50 over the tested strains ([2]; planktonic, 5 h): 0.78 µg/mL | MIC, individual component ([2]; planktonic, 24 h): 0.78 µg/mL | Minimal inhibitory concentration (MIC) ([3]; L. plantarum WCFS1): > 50 µg/mL | Minimal inhibitory concentration (MIC) ([3]; L. plantarum WCFS1/pEV, expressing empty vector): > 50 µg/mL | Minimal inhibitory concentration (MIC) ([3]; L. plantarum WCFS1/pSIP401_SHRseP, expressing RseP from S. haemolyticus 7067_4_21): 0.39 µg/mL | MIC50 against the different S. haemolyticus strains [4]: 100 to 780 µg/mL

garvicin KS [GarKS]
Inhibition zones at three concentrations [1]: some inhibition was seen only at the highest concentration | MIC, individual component [2, 5]: 6.5 µg/mL | MIC, individual component [2, 6]: 24 µg/mL | MIC, individual component [2, 7]: 25 µg/mL | MIC, individual component [2, 8]: 3.3 µg/mL | MIC, individual component [2, 9]: 13 µg/mL | MIC, individual component [2, 10]: 26 µg/mL | MIC, individual component [2, 11]: 12 µg/mL | MIC, individual component [2, 12]: 48 µg/mL | MIC, individual component [2, 13]: 51 µg/mL | MIC, individual component [2, 14]: 12.5 µg/mL | MIC, individual component [2, 15]: 51 µg/mL | MIC, individual component [2, 16]: 100 µg/mL | MIC, individual component [2, 17]: 23.6 µg/mL | MIC, individual component [2, 18]: 49 µg/mL | MIC, individual component [2, 19]: 52 µg/mL | MIC, individual component [2, 20]: 12.5 µg/mL | MIC, individual component [2, 21]: 51 µg/mL | MIC, individual component [2, 22]: 51 µg/mL

From paper PMC8260761, “A bacteriocin-based treatment option for Staphylococcus haemolyticus biofilms” (Scientific Reports, 2021)
